Data set [1] concerns the target RAC-gamma serine/threonine-protein kinase (Homo sapiens) (UniProt Q9Y243). The experiment in a line: Inhibition of AKT3 (unknown origin) at 10 nM after 40 mins by scintillation counting method relative to control.
The subject of data set [2] is PC-3. Kind of data set: Induction of apoptosis in human PC3 cells assessed as early apoptotic cells at 5 uM after 48 hrs by Annexin V-FITC/propidium iodide staining based flow cytometry (reference value: 1.05%). Format: functional.
The target of data set [3] is T1, RAC-alpha serine/threonine-protein kinase (Homo sapiens, UniProt P31749). Kind of data set: Inhibition of AKT phosphorylation in human PC3 cells at 1 to 10 uM after 4 hrs by Western blot analysis. In kind it is cell-based. On the technique in general: Immunoblotting shows a protein as a band on a membrane.
T1 sequence (P31749 whole entry): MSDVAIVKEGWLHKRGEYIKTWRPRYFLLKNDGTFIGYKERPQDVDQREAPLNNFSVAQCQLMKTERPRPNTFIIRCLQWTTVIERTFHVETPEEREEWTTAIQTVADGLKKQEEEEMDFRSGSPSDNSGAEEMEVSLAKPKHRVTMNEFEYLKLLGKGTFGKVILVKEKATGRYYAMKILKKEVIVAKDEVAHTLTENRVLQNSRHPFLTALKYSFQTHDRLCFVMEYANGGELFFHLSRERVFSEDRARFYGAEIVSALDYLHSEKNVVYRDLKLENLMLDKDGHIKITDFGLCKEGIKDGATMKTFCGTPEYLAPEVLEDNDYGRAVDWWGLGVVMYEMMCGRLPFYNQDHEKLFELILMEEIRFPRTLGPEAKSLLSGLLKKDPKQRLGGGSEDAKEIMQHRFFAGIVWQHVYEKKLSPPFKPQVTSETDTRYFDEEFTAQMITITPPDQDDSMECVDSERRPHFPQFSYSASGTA
In data set [4] the target is Cyclin-dependent kinase 1 (Homo sapiens) (UniProt P06493). Kind of data set: Inhibition of CDK1 (unknown origin) at 1 uM after 40 mins by scintillation counting method relative to control.
Cyclin-dependent kinase 1 (Homo sapiens), sequence (P06493 whole entry, looked up): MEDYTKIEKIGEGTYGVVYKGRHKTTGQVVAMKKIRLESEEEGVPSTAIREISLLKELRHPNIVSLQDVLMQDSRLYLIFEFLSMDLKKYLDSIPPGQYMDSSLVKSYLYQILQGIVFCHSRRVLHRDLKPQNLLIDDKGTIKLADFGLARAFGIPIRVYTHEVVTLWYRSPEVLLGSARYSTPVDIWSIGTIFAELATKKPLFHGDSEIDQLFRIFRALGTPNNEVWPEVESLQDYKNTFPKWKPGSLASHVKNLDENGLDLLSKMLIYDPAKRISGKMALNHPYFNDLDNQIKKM
The subject of data set [5] is PC-3. The experiment in a line: Induction of apoptosis in human PC3 cells assessed as necrotic cells at 1 uM after 48 hrs by Annexin V-FITC/propidium iodide staining based flow cytometry (reference value: 1.48%). Format: functional.
Data set [6] addresses T2, 3-phosphoinositide-dependent protein kinase 1 (Homo sapiens) (UniProt O15530).
T2 sequence (whole entry): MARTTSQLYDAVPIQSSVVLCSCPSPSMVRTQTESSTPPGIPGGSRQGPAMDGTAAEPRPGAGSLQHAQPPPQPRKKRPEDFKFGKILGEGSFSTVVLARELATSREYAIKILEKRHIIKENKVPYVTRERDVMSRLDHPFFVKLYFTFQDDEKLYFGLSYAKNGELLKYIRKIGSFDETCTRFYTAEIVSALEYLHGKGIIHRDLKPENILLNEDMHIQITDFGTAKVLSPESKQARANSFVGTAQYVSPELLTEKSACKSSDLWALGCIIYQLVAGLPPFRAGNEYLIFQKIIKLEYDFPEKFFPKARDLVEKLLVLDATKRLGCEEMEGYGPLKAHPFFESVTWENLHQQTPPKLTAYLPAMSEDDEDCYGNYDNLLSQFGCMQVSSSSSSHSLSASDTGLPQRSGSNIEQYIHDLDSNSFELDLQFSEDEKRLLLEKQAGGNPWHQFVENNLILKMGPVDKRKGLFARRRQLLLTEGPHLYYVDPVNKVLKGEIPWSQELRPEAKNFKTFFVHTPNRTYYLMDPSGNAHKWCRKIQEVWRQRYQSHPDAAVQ
Kind of data set: Inhibition of PDK1 (unknown origin) at 1 uM after 40 mins by scintillation counting method relative to control.

Data set [7] deals with PC-3. The experiment in a line: Induction of apoptosis in human PC3 cells assessed as necrotic cells at 5 uM after 48 hrs by Annexin V-FITC/propidium iodide staining based flow cytometry (reference value: 1.48%). Format: functional. (In general: In flow cytometry, cells or beads pass a laser one at a time.)
Data set [8] has as its system PC-3. Kind of data set: Induction of apoptosis in human PC3 cells assessed as necrotic cells at 10 uM after 48 hrs by Annexin V-FITC/propidium iodide staining based flow cytometry (reference value: 1.48%). In kind it is functional.
A short description of the next data set: in vitro. The settings on record: human, liver microsomes. Also noted: dose or concentration left out as unconfirmed. (Liver microsomes are a subcellular fraction often used to study metabolism.)
Another data set is filed under the species Homo sapiens. Kind of data set: Selectivity ratio of compound effect for inhibition of AKT1 (unknown origin) to compound effect for inhibition of AKT2 (unknown origin).
Data set [9] has as its target T1, RAC-alpha serine/threonine-protein kinase. The experiment in a line: Inhibition of AKT in human PC3 cells assessed as reduction in GSK3beta phosphorylation at 1 to 10 uM after 4 hrs by Western blot analysis. Format: cell-based.
Data set [10] has the same target. Kind of data set: Inhibition of AKT1 (unknown origin) at 10 nM after 40 mins by scintillation counting method relative to control.
For data set [11], the target named is MAP kinase-interacting serine/threonine-protein kinase 1 (Homo sapiens) (UniProt Q9BUB5). The experiment in a line: Inhibition of MNK1 (unknown origin) at 1 uM after 40 mins by scintillation counting method relative to control.
MAP kinase-interacting serine/threonine-protein kinase 1 (Homo sapiens), sequence (Q9BUB5 whole entry, looked up): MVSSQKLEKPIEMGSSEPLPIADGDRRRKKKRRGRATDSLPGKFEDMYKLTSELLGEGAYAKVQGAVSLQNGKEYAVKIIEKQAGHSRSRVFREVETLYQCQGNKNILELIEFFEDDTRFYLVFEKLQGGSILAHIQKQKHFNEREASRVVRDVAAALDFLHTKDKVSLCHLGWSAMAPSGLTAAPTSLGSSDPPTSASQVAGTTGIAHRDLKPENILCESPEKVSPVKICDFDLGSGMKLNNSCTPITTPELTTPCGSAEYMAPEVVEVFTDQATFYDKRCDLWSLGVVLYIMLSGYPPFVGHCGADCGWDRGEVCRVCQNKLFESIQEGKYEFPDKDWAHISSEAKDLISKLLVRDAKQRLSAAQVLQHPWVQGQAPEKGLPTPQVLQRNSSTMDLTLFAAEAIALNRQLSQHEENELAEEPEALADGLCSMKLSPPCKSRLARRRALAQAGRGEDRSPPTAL
Data set [12] has as its target Protein kinase C alpha type (Homo sapiens) (UniProt P17252). Kind of data set: Inhibition of PKCalpha (unknown origin) at 1 uM after 40 mins by scintillation counting method relative to control.

The structures appear in SMILES notation. Activity calls are given as the source filed them. No cut-off for these calls is given here. Some results are limits rather than exact numbers.

RAC-gamma serine/threonine-protein kinase (Homo sapiens), sequence (Q9Y243 whole entry): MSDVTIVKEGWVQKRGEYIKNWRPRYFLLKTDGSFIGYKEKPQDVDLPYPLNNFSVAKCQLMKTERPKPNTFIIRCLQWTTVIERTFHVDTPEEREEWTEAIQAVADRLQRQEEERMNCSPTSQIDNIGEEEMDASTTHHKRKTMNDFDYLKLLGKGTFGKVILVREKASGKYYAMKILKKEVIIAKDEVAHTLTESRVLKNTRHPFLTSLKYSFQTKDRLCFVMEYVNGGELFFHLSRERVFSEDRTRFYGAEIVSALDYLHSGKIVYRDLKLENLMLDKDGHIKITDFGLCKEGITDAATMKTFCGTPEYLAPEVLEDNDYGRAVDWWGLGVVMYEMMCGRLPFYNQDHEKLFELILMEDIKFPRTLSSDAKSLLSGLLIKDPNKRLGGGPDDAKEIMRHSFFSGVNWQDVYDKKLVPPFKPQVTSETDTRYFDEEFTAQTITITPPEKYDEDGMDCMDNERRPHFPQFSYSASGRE
Description for in vitro: Half life in human liver microsomes at 10 mM preincubated for 10 mins followed by NADPH addition by LC-MS analysis

The term inhibition denotes the relative decrease from the control value, in per cent. For orientation: half-life means how long it takes for the measured level to halve. `O=C(N1CCN(c2ncnc3[nH]nc(Cl)c23)CC1)C1(c2ccc(Cl)c(Cl)c2)CCNCC1`: the results for the inhibition in data set [1], in data set [10] and in [11] were 93%, 82% and 47%, respectively. Moreover, the Activity is 3.93% in the data set with PC-3 [2], 2% in the data set on PC-3 [5], 1.76% with PC-3 [7] and 3.24% in the data set on PC-3 [8]. The inhibition result in data set [3] was “Active”. Further, the inhibition entry in [4], in data set [6], in data set [9] and in data set [12] was “inactive” each time. Further, the half-life in “in vitro” is above 2.42 h. In addition, in the data set listed under Homo sapiens, the Selectivity ratio is above 2.

Source of the values: ChEMBL document CHEMBL4257535, “Design, synthesis and biological evaluation of AKT inhibitors bearing a piperidin-4-yl appendant” (Medchemcomm, 2018).
